# Reference: patent US12285422B2, “Uses of piperidinyl-indole derivatives” (priority 2017, dated 2025)
# Experiments:
# [1] = test system: human microvascular endothelial cell line (HMEC-1); test: C3 deposition on ADP-activated HMEC-1 exposed to STEC-HUS patient serum; type: cell-based; conditions: for reduction of C3 deposition on ADP-activated HMEC-1: STEC-HUS patient serum, 4 hours, p<0.0001
# Protocol: As described in Morigi et al., 2011 (Morigi M, Galbusera M, Gastoldi S, Locatelli, M, Buelli, S, Pezzotta A, Pagani C, Noris M, Gobbi M, Stravalaci M, Rottoli D, Tedesco F, Remuzzi G and Joja C: 2011. Alternative pathway activation of complement by Shiga toxin promotes exuberant C3a formation that triggers microvascular thrombosis. J Immunol. 187(1):172-80), human microvascular endothelial cell line of dermal origin (HMEC-1, ATCC CRL-3243) were plated on glass slides and used when confluent. […]. At the end of the incubation step HMEC-1 were treated with fluorochrome-conjugated anti-human C3c. In each experiment, a pool of sera from healthy controls was tested in parallel with patient serum. A confocal inverted laser microscope was used for acquisition of the fluorescent staining on endothelial cell surface.
# Fifteen fields per sample were acquired and the area occupied by the fluorescent staining was evaluated by automatic edge detection using built-in specific functions of the software Image J and expressed as pixel2 per field analyzed. The highest and lowest values were discarded and the mean±SE was calculated on the remaining 13 fields.
# Results: Serum from patients with acute STEC-HUS induced a massive C3 deposition on ADP-activated endothelial cells in respect to sera from healthy controls (P<0.0001). […].
# [2] = test system: passive Heymann nephritis in rats; test: Passive Heymann nephritis in rats (model for membranous nephropathy); type: in vivo, rat; conditions: for combined histopathology score: p<0.005; for reduction of proteinuria: twice daily oral gavage, 14 days post transfer, p<0.0001; for proteinuria: 60 mg/kg twice daily oral gavage starting 6 days post serum transfer
# Excerpt: 4. FB Inhibitor Prevents the Development and Progression of Passive Heymann Nephritis in Rats
# Passive Heymann nephritis in the rat is the most common animal model for membranous nephropathy (see Jefferson J A, Pippin J W and Shankland S J 2010. Experimental Models of membranous nephropathy. Drug Discov Today Dis Models. 7(1-2):27-33). It is induced by the transfer of a polyclonal serum derived from rabbits immunized with rat megalin and manifests inflammatory changes in the kidney that are highly reminiscent with the human disease. Significant proteinuria is observed 4 days after the antibody transfer and increases until 2 weeks post transfer.
smiles,measurement,setting,value
"CCO[C@H]1CCN(Cc2c(OC)cc(C)c3[nH]ccc23)[C@H](c2ccc(C(=O)O)cc2)C1 [compound of embodiment 5, 4-((2S,4S)-4-ethoxy-1-((5-methoxy-7-methyl-1H-indol-4-yl)methyl)piperidin-2-yl)benzoic acid]",reduction of C3 deposition on ADP-activated HMEC-1,[1]; 1 microM,73%
same,reduction of C3 deposition on ADP-activated HMEC-1,[1]; 10 microM,89%
same,C3 deposits on endothelial cells versus cells exposed to control sera,"[1]; 10 microM, STEC-HUS serum",did not significantly differ
same,combined histopathology score,"[2]; prophylactic, 20 mg/kg, vehicle 2.2",0.3
same,combined histopathology score,"[2]; prophylactic, 60 mg/kg, vehicle 2.2",0.4
same,reduction of proteinuria,"[2]; prophylactic, 20 mg/kg/d",82%
same,reduction of proteinuria,"[2]; prophylactic, 60 mg/kg/d",75%
same,proteinuria,"[2]; therapeutic, day 6 (control 0.79)",0.74
same,proteinuria,"[2]; therapeutic, day 14 (control 1.93)",0.81
same,effect on disease progression,"[2]; therapeutic, 60 mg/kg twice daily oral gavage starting after manifestation of proteinuria (6 days post serum transfer)",blocked further progression of the disease
same,combined histopathology score,"[2]; therapeutic, 60 mg/kg twice daily oral gavage starting day 6, vehicle 2.7",1.1
